Non-standard residues stand in square brackets, D forms with d. Residues, ends and D or L forms follow the SMILES beside them. *: point of attachment. 1Nal = N[C@@H](Cc1cccc2ccccc12)C(=O)O; Cbz = O=C(OCc1ccccc1)*
| SMILES | melting point |
| --- | --- |
| CCCCCCCCCCCCCCCCCCN(C)S(=O)(=O)c1cc(C(=O)OC)c([N+](=O)[O-])c(C(=O)OC)c1 | 70 to 72 °C |
| COC(=O)c1cc(S(C)(=O)=O)c(F)cc1Br | 126 °C |
| CN(C)C=C(C=O)c1ccc(Cl)cc1Cl | 112 to 114 °C |
| Cn1nc(C#N)c(Nc2ccc(C(F)(F)F)cc2[N+](=O)[O-])n1 | 116 to 117 °C |
| O=C1NCCc2ccc(OCCCN3CCN(c4cccc(Cl)c4Cl)CC3)cc21 | 162 to 164 °C |
| CCOC(=O)COc1cc(O)c2c(c1Cl)OC1(CCCCC1)CC2=O | 110 to 111 °C |
| N=c1sc2cc(OC(F)(F)F)ccc2n1CCSCc1ccccn1 | 125 °C |
| CN(C)C=Cc1ncc([N+](=O)[O-])n1CCc1ccncc1 | 190 to 191 °C |
| COc1cc(CF)nc(N)n1 | 119 to 121 °C |
| CCC1(C)CC(S(=O)Cc2c(F)cccc2F)=NO1 (stereo not given) | < 30 °C |
| CCCCCc1cnc(-c2ccc(C#N)cc2)nc1 | 69.4 to 70.8 °C |
| Cn1cc(C(=O)O)c(=O)c2cc(F)c(N3CCNCC3)cc21 | 310 °C |
| CCCc1nc2c(N)nc3ccccc3c2n1CC1(O)CCCCC1 | 250 to 252 °C |
| CP(=O)(O)CC(=O)CN | 148 to 149 °C |
| Cn1cnc(COc2nc3c(cc2C(C)(C)C)nnn3-c2ccccc2F)n1 | 127 to 129 °C |
| NCc1ccc(C2CCN(c3nc4c(cc3F)c(=O)c(C(=O)O)cn4C3CC3)C2)cc1 (stereo not given) | 268 to 272 °C |
| CSc1c[nH]nc1C1CN2CCC1CC2 (stereo not given) | 145 to 147 °C |
| Cc1ccc(-c2ccc(N3CCCN(c4ccc(-c5ccc(C)cc5)cn4)CC3)nc2)cc1 | 245 to 247 °C |
| CC(C)(C)OC(=O)NCc1cccc(C#N)n1 | 85.9 to 86.5 °C |
| CCC(c1ccc(Br)cc1)N(O)C(N)=O (stereo not given) | 139 to 141 °C |
| CCCN(CCC)Cn1cnc2c1c(=O)n(C)c(=O)n2C | 72 to 73 °C |
| c1cc(OCCCNCC2COc3cc4c(cc3O2)OCO4)c2cccnc2c1 (stereo not given) | 140 to 145 °C |
| O=C(CCCCc1cc(O)c(O)c([N+](=O)[O-])c1)NC12CC3CC(CC(C3)C1)C2 | 157 to 160 °C |
| CS(=O)c1ccc(C2=NN(S(=O)(=O)c3ccc(I)cc3)CCC2)cc1 (stereo not given) | 191 to 193 °C |

| SMILES | melting point |
| --- | --- |
| CCCc1c(C(=O)C(C)C)c2ccc(C(N)=O)cc2n1Cc1ccccc1[N+](=O)[O-] | 181 to 182 °C |
| CCOC(=O)C1=C(COC(C)=O)Nc2nc(N)nc(N)c2C1c1cccc([N+](=O)[O-])c1 (stereo not given) | 219 °C |
| COc1ccc(CNc2nc(N3CCn4ccnc4C3)ncc2C(=O)NCC2CN(C)CCO2)cc1Cl (stereo not given) | 132 to 134 °C |
| CNc1nc(C)ccc1C(=O)OCC#N | 154 to 157 °C |
| CCOc1ccc(O)c(CC(=O)OC)c1 | 83 to 84 °C |
| CCc1cccc(C)c1S(=O)(=O)c1nn(C(=O)N(CC)CC)cc1Cl | 68 to 72 °C |
| N#CC(N)=C(C#N)N=Cc1nn(-c2c(Cl)cc(C(F)(F)F)cc2Cl)nc1C(F)(F)F | 218 to 220 °C |
| CCOCCOCc1ccc(-c2ccc3c(c2)C=C(C(=O)Nc2ccc(CN(C)C4CCOCC4)cc2)CCS3(=O)=O)cc1 | 184 to 186 °C |
| CCCCCCCCCCNC(=O)c1cc(C(=O)NCCCCCCCCCC)cc([N+](=O)[O-])c1 | 115 to 116 °C |
| Nc1cc(Cl)ccc1CO | 104 to 105 °C |
| CC(=O)OCc1nc2ccc(Oc3cc(C)c(OC(C)=O)c(C)c3C)nc2n1C | 128 to 129 °C |
| NC(=S)c1ncn(C2OC(CO)C(O)C2O)n1 (stereo not given) | 173 to 175 °C |
| N#CC1(N)CC2(OC(c3ccccc3)C(c3ccccc3)O2)C2C1C2(F)C(N)=O (stereo not given) | 197 °C |
| C=C1c2ccccc2CC12CCC(N1CCCCC1)CC2 (stereo not given) | 93 to 95 °C |
| COc1cc(O)c(C#N)c2cc(-c3ccc(O)c(F)c3)oc12 | 265 to 267 °C |
| Cc1cccc(-c2cncc(OC3SCC(O)C(O)C3O)c2)n1 (stereo not given) | 188 °C |
| c1ccc2c(NCC3CCCCC3)c3cnn(C4CCCC4)c3nc2c1 | 290 to 292 °C |
| CC(C)Oc1ccccc1C(=O)NC(=O)NC1CN2CCC1CC2 (stereo not given) | 171 to 175 °C |
| O=C(Cn1nc(Br)nc1Br)N1CCC(c2nc(C3=NOC(c4c(F)cccc4F)C3)cs2)CC1 (stereo not given) | 185 to 189 °C |
| Nc1nnc(N2CCN(Cc3ccncc3)CC2)[nH]1 | 191 to 193 °C |
| CCCC(=O)C(=CNc1ccc(O)cc1OC)C(=O)OCC | 140 to 142 °C |
| COc1cccc(OC)c1-c1cc(C(=O)NC2(C(=O)O)C3CC4CC(C3)CC2C4)nn1-c1ccc(N)cc1C (stereo not given) | 205 °C |
| NCC1COc2cc(Cl)cc(-c3ccc(C(F)(F)F)cc3C(F)(F)F)c2N1 (stereo not given) | 98 °C |
| Oc1cc(C(F)(F)F)nc(C(F)(F)F)c1 | 123 to 130 °C |

The next lines start with the values.

| melting point | SMILES |
| --- | --- |
| 182 to 183 °C | COC(=O)c1ccc(-c2nc(-c3ccc(C(F)(F)F)cc3)co2)cc1 |
| 157 to 158 °C | CN1CCN(CCc2ccc(Nc3ncc4c(n3)-c3ccccc3C(c3ccccc3C(F)(F)F)C4)cc2)CC1 (stereo not given) |
| 171 to 172 °C | CC(=O)N1CN(C(=O)c2c(F)cccc2F)C(=O)N(c2ccc(Cl)cc2)C1 |
| 244 to 246 °C | NC1=C2C=NN=C2N(c2ccccc2)CN1c1ccccc1 |
| 145 to 147 °C | Cc1cccc(OS(=O)(=O)c2ccc(N3CCCNC3=O)cc2)c1 |
| 157 to 159 °C | COc1ccc(S(=O)(=O)C(CCCCc2ccccc2)CC(=O)NO)cc1OC (stereo not given) |
| 153 °C | Cc1ccc(C=C2C3=C(C=CC2(C)C)CC(C)CN3)cc1 (stereo not given) |
| 101 °C | COc1ccc(S(=O)(=O)C2(C(=O)NO)CCN(CCCOc3ccccc3)CC2)cc1 |
| 81 to 82 °C | O=C(NCCCSc1ccccn1)c1cccs1 |
| 134 to 135 °C | O=C(O)C(=O)c1ccc(OCc2ccccc2)c(Cl)c1 |
| 167 °C | O=C(Nc1ccc2ccc(Oc3ccccc3)nc2n1)c1ccco1 |
| 126 to 129 °C | CCCCSc1ccc2c3c(cccc13)C(=O)N2 |
| 274 to 276 °C | O=C(Nc1ccncc1)C1=C(O)CCn2c1nc1ccccc12 |
| 106 to 108 °C | CC(C)C[C@@H](C=O)NC(=O)[C@H](Cc1c[nH]cn1)NC(=O)[C@H](Cc1cccc2ccccc12)NC(=O)OCc1ccccc1 (Cbz-[1Nal]-His-Leu-aldehyde) |
| 120 to 121 °C | O=C(Nc1ccc(N2C[C@@H]3C[C@H]2CO3)c(F)c1)OCc1ccccc1 |
| 162 to 165 °C | CC(=O)c1c(O)cccc1OCC(F)COc1cccc(O)c1C(C)=O |
| 146 to 148 °C | Cc1ccc(N[C@H](Cc2c[nH]c3ccccc23)C(=O)O)cc1 |
| 84.3 °C | COC(=O)c1cccc2[nH]c3ccccc3c12 |
| 181 °C | COc1ccc(-c2nc(Sc3ccc(C)cc3)[nH]c2-c2ccc(OC)cc2)cc1 |
| 110 °C | O=C(CCc1cc(-c2ccccc2)nc2ccccc12)N1CCCCC1 |
| 63 to 66 °C | CCCCN(C(=O)Nc1ccc(F)cc1F)c1cnc2ccc(Cl)cc2c1-c1ccccc1Cl |
| 95 °C | O=S(=O)(c1ccccc1)N1CCCC1c1ccc(C(F)(F)F)cc1 (racemic) |
| 116 to 118 °C | O=C(O)c1cc([N+](=O)[O-])ccc1NCCc1ccccc1 |
| 148 to 149 °C | Cc1ncnc(-c2ccc(Oc3ccc([N+](=O)[O-])cc3)cc2)n1 |
| 205 to 206 °C | S=C(NCn1nnc2ccccc21)NCn1nnc2ccccc21 |
| 155 to 156 °C | CC(=O)Nc1ccc2c(c1)C(=O)N(CCO)CO2 |

| melting point | SMILES |
| --- | --- |
| 102 to 104 °C | CCOC(=O)c1ccc(S(N)(=O)=O)cc1 |
| 121 to 122 °C | C[C@@](O)(C(=O)Nc1ccc(S(=O)(=O)c2ccccc2)cc1F)C(F)(F)F |
| 120 to 122 °C | Fc1ccc(N2CCC(N3CCc4ccccc43)CC2)cc1 |
| 166 to 167 °C | COC(=O)/C=C/C=C/c1ccc(OCc2nc(-c3ccccc3)oc2C)c(OC)c1 |
| 45 to 47 °C | Cc1cccc(Nc2ccccc2C=O)c1C |
| 139 to 143 °C | CC1(C)SC(=O)N(Cc2ccccc2[N+](=O)[O-])C1O (stereo not given) |
| 79 to 80 °C | CCOC(=O)NCn1cccc1C(=O)c1ccc(Cl)cc1Cl |
| 278 to 279 °C | Cc1nc(-n2cn[nH]c2=O)sc1C(=O)NCc1cccnc1 |
| 161 to 163 °C | Nc1ccc(-n2ncnc2-c2ccccc2)cc1 |
| > 250 °C | CC(C)n1nc(-c2nc(C(N)=S)c(N)nc2-c2ccccc2)ccc1=O |
| 188 °C | CCCCCCc1cc2c(=O)c(-c3ccc(OC)cc3)coc2cc1O |
| 105 to 108 °C | O=C(O)[C@H]1C[C@H](CCc2ccccc2)Oc2ccc(F)cc21 (relative stereo) |
| 225 °C | O=C1CC(c2ccccc2)c2cc(C(c3ccc(Cl)cc3)n3ccnc3)ccc2N1 (stereo not given) |
| 66 to 67 °C | Cc1oc(-c2ccccc2)nc1COc1ccc(CCOS(C)(=O)=O)cc1 |
| 163 to 165 °C | O=C(O)c1cc2cc(OCc3ccccc3)ccc2cc1OCc1ccccc1 |
| 105 to 106 °C | COc1ccc(C(NC(C)c2cc(F)cc(F)c2)c2cc(N)ccc2OC)cc1 (stereo not given) |
| 141 to 143 °C | CC(C)N(C(=O)CN1C(=O)Cn2cnnc2-c2ccccc21)c1ccccc1 |
| 172 to 174 °C | COc1ccc(-n2nc(CC(C)(C)C(=O)O)cc2-c2ccc(Cl)cc2)cc1 |
| 223 to 225 °C | CC(=O)NCc1cccc(Nc2nccc(-c3sc(-c4cccs4)nc3C)n2)c1 |
| 182 °C | COc1ccc(N(C(=O)CNC(=O)Nc2cccc(C)c2)c2ccccc2)cc1 |
| 173 to 178 °C | COc1cc2c(cc1OC)CN(CC(=O)Nc1ccc([N+](=O)[O-])cc1)CC2 |
| 162 to 164 °C | COC(=O)CCC(NC(c1ccccc1)c1ccccc1)P(O)O (stereo not given) |
| 304 to 306 °C | O=C(O)c1cc2c(=O)n(-c3ccccc3)c3ccccc3n2c1 |
| 171 to 173 °C | CC(NC(=O)NO)c1ccc2cc(OCc3csc(-c4ccccc4)n3)ccc2c1 (single isomer, unassigned; (-)) |
| 75 to 76 °C | CNCCC1CCc2cc(OCc3ccc(-c4ccccc4)cc3)ccc2C1 (stereo not given) |
| 100 °C | CCOc1ccc([N+](=O)[O-])c(Nc2ccc(C(C)C)cc2)c1 |
